Test results: patent US20070112043A1, “Acylated and non-acylated imidazo[2,1-b]-1,3,4,-thiadiazole-2-sulfonamides, and uses thereof” (priority 2003, published 2007)

Legend:
[1] = Solubility in water and formulations; conditions: TFA salts, not neutralized
Protocol: (§1) Alternatively, the sodium salt can be prepared in situ by dissolving the free acid in phosphate buffered saline (PBS) that has been buffered to a pH of 7.4. The solubility and stability of these solutions can be improved by the use of an aqueous soluble co-solvent such as, but not limited to HPCD. This solubility can be further improved by the addition of surfactants such as PEG 400. In general, the free acid is suspended in 10 wt/vol % HPDC (10 g dissolved in 100 mL water) and treated with 0.5M PBS (pH 7.4) such that the volumes are in a ratio of 75:25.

physchem = conditions: water
Protocol: as §1

| solubility (physchem) [µg/mL] | Structure (SMILES) | solubility in water or in 10% HPCD [1] |
| --- | --- | --- |
|  | CSCCC(N)C(=O)NS(=O)(=O)c1nn2cc(-c3ccccc3)nc2s1 (centres unmarked) [Compound 24] | not soluble |
|  | O=C(NS(=O)(=O)c1nn2cc(-c3ccccc3)nc2s1)C1CCCN1 (centres unmarked) [Compound 26] | not soluble |
| < 500 | NS(=O)(=O)c1nn2cc(-c3ccccc3F)nc2s1 [Compound 52] |  |
| < 500 | NS(=O)(=O)c1nn2cc(-c3cccc(F)c3)nc2s1 [Compound 53] |  |
| < 500 | NS(=O)(=O)c1nn2cc(-c3ccc(F)cc3)nc2s1 [Compound 54] |  |
| < 500 | NS(=O)(=O)c1nn2cc(-c3ccc(F)c(F)c3)nc2s1 [Compound 55] |  |
| < 500 | NS(=O)(=O)c1nn2cc(-c3ccc(Cl)cc3)nc2s1 [Compound 56] |  |
| < 500 | NS(=O)(=O)c1nn2cc(-c3ccc(Cl)c(Cl)c3)nc2s1 [Compound 57] |  |
| < 500 | NS(=O)(=O)c1nn2cc(-c3ccc(Cl)c(Cl)c3Cl)nc2s1 [Compound 58] |  |
| < 500 | NS(=O)(=O)c1nn2cc(-c3cccc(Br)c3)nc2s1 [Compound 59] |  |
| < 500 | NS(=O)(=O)c1nn2cc(-c3ccc(Br)cc3)nc2s1 [Compound 60] |  |
| < 500 | COc1cccc(-c2cn3nc(S(N)(=O)=O)sc3n2)c1 [Compound 61] |  |
| < 500 | COc1ccc(-c2cn3nc(S(N)(=O)=O)sc3n2)cc1 [Compound 62] |  |
| < 500 | COc1ccc(OC)c(-c2cn3nc(S(N)(=O)=O)sc3n2)c1 [Compound 63] |  |
| < 500 | COc1ccc(-c2cn3nc(S(N)(=O)=O)sc3n2)c(OC)c1 [Compound 64] |  |
| < 500 | NS(=O)(=O)c1nn2cc(-c3ccc4c(c3)OCO4)nc2s1 [Compound 65] |  |
| < 500 | NS(=O)(=O)c1nn2cc(-c3cccc(OC(F)(F)F)c3)nc2s1 [Compound 66] |  |
| < 500 | NS(=O)(=O)c1nn2cc(-c3ccc(OC(F)(F)F)cc3)nc2s1 [Compound 67] |  |
| < 500 | NS(=O)(=O)c1nn2cc(-c3ccc(OCCO)cc3)nc2s1 [Compound 68] |  |
| < 500 | CC(=O)OCCOc1ccc(-c2cn3nc(S(N)(=O)=O)sc3n2)cc1 [Compound 69] |  |
| < 500 | NS(=O)(=O)c1nn2cc(-c3ccc(OCCC(F)(F)F)cc3)nc2s1 [Compound 70] |  |

| solubility (physchem) [µg/mL] | Structure (SMILES) | solubility in water or in 10% HPCD [1] |
| --- | --- | --- |
| < 500 | COCCOCCOc1ccc(-c2cn3nc(S(N)(=O)=O)sc3n2)cc1 [Compound 71] |  |
| < 500 | NS(=O)(=O)c1nn2cc(-c3ccc(OCCOCc4ccccc4)cc3)nc2s1 [Compound 72] |  |
| < 500 | NS(=O)(=O)c1nn2cc(-c3ccc(OCCCOCc4ccccc4)cc3)nc2s1 [Compound 73] |  |
| < 500 | NS(=O)(=O)c1nn2cc(-c3cccc([N+](=O)[O-])c3)nc2s1 [Compound 74] |  |
| < 500 | NS(=O)(=O)c1nn2cc(-c3ccc(Cl)c([N+](=O)[O-])c3)nc2s1 [Compound 75] |  |
| < 500 | COC(=O)c1ccc(-c2cn3nc(S(N)(=O)=O)sc3n2)cc1 [Compound 76] |  |
| < 500 | N#Cc1cccc(-c2cn3nc(S(N)(=O)=O)sc3n2)c1 [Compound 77] |  |
| < 500 | N#Cc1ccc(-c2cn3nc(S(N)(=O)=O)sc3n2)cc1 [Compound 78] |  |
| < 500 | Cc1ccc(-c2cn3nc(S(N)(=O)=O)sc3n2)cc1 [Compound 79] |  |
| < 500 | Cc1ccc(-c2cn3nc(S(N)(=O)=O)sc3n2)c(C)c1 [Compound 80] |  |
| < 500 | CC(C)(C)c1ccc(-c2cn3nc(S(N)(=O)=O)sc3n2)cc1 [Compound 81] |  |
| < 500 | CC(C)(C)c1cc(-c2cn3nc(S(N)(=O)=O)sc3n2)c2c(c1)C(C)(C)CC2 [Compound 82] |  |
| < 500 | Cc1ccc(C23CC4CC(CC2C4)C3)cc1-c1cn2nc(S(N)(=O)=O)sc2n1 [Compound 83] |  |
| < 500 | NS(=O)(=O)c1nn2cc(-c3ccc(C(F)(F)F)cc3)nc2s1 [Compound 84] |  |
| < 500 | NS(=O)(=O)c1nn2cc(-c3cc(C(F)(F)F)ccc3Cl)nc2s1 [Compound 85] |  |
| < 500 | NS(=O)(=O)c1nn2cc(-c3cc(C(F)(F)F)cc(C(F)(F)F)c3)nc2s1 [Compound 86] |  |
| < 500 | CC(C)(C)c1cc(-c2cn3nc(S(N)(=O)=O)sc3n2)cc(C(C)(C)C)c1 [Compound 87] |  |
| < 500 | CC(=O)N[C@H](C)c1ccc(-c2cn3nc(S(N)(=O)=O)sc3n2)cc1 [Compound 90] |  |
| < 500 | NS(=O)(=O)c1nn2cc(C(F)(F)F)nc2s1 [Compound 91] |  |
| < 500 | NS(=O)(=O)c1nn2cc(C34CC5CC(CC(C5)C3)C4)nc2s1 [Compound 92] |  |
| < 500 | NS(=O)(=O)c1nn2cc(-c3cccc4ccccc34)nc2s1 [Compound 93] |  |

| solubility (physchem) [µg/mL] | Structure (SMILES) | solubility in water or in 10% HPCD [1] |
| --- | --- | --- |
| < 500 | NS(=O)(=O)c1nn2cc(-c3ccc4ccccc4c3)nc2s1 [Compound 94] |  |
| < 500 | NS(=O)(=O)c1nn2cc(-c3ccc(N4CCCCC4)cc3)nc2s1 [Compound 96] |  |
| < 500 | NS(=O)(=O)c1nn2cc(-c3ccc(-c4ccccc4)cc3)nc2s1 [Compound 98] |  |
| < 500 | NS(=O)(=O)c1nn2cc(-c3ccc(-c4c(F)c(F)c(F)c(F)c4F)cc3)nc2s1 [Compound 99] |  |
| < 500 | COc1ccccc1-c1ccc(-c2cn3nc(S(N)(=O)=O)sc3n2)cc1 [Compound 100] |  |
| < 500 | COc1ccc(-c2ccc(-c3cn4nc(S(N)(=O)=O)sc4n3)cc2)cc1 [Compound 101] |  |
| < 500 | NS(=O)(=O)c1nn2cc(-c3ccc(-c4cccc(OC(F)(F)F)c4)cc3)nc2s1 [Compound 102] |  |
| < 500 | NS(=O)(=O)c1nn2cc(-c3ccc(-c4ccc5c(c4)OCO5)cc3)nc2s1 [Compound 103] |  |
| < 500 | NS(=O)(=O)c1nn2cc(-c3ccc(-c4ccccc4C(F)(F)F)cc3)nc2s1 [Compound 104] |  |
| < 500 | NS(=O)(=O)c1nn2cc(-c3ccc(-c4ccc(C(F)(F)F)cc4)cc3)nc2s1 [Compound 105] |  |
| < 500 | NS(=O)(=O)c1nn2cc(-c3ccc(-c4cc(C(F)(F)F)cc(C(F)(F)F)c4)cc3)nc2s1 [Compound 106] |  |
| < 500 | NS(=O)(=O)c1nn2cc(-c3ccc(-c4cccs4)cc3)nc2s1 [Compound 107] |  |
| < 500 | NS(=O)(=O)c1nn2cc(-c3ccc(-c4ccsc4)cc3)nc2s1 [Compound 108] |  |
| < 500 | COc1ccc(-c2cccc(-c3cn4nc(S(N)(=O)=O)sc4n3)c2)cc1 [Compound 109] |  |
| < 500 | NS(=O)(=O)c1nn2cc(-c3ccc(Oc4ccccc4)cc3)nc2s1 [Compound 110] |  |
| < 500 | NS(=O)(=O)c1nn2cc(-c3ccc(Oc4ccc(F)cc4)cc3)nc2s1 [Compound 111] |  |
| < 500 | NS(=O)(=O)c1nn2cc(-c3ccc(Oc4ccc(F)c(F)c4)cc3)nc2s1 [Compound 112] |  |
| < 500 | NS(=O)(=O)c1nn2cc(-c3ccc(Oc4ccc(Cl)c(Cl)c4)cc3)nc2s1 [Compound 113] |  |
| < 500 | NS(=O)(=O)c1nn2cc(-c3ccc(Oc4ccccc4Br)cc3)nc2s1 [Compound 114] |  |
| < 500 | NS(=O)(=O)c1nn2cc(-c3ccc(Oc4cccc(Br)c4)cc3)nc2s1 [Compound 115] |  |
| < 500 | CN(C)c1cccc(Oc2ccc(-c3cn4nc(S(N)(=O)=O)sc4n3)cc2)c1 [Compound 117] |  |

| solubility (physchem) [µg/mL] | Structure (SMILES) | solubility in water or in 10% HPCD [1] |
| --- | --- | --- |
| < 500 | CC(C)c1ccc(Oc2ccc(-c3cn4nc(S(N)(=O)=O)sc4n3)cc2)cc1 [Compound 118] |  |
| < 500 | COc1ccc(Oc2ccc(-c3cn4nc(S(N)(=O)=O)sc4n3)cc2)cc1 [Compound 119] |  |
| < 500 | NS(=O)(=O)c1nn2cc(-c3ccc(Oc4ccc([N+](=O)[O-])cc4)cc3)nc2s1 [Compound 120] |  |
| < 500 | Cc1ccc(-c2cn3nc(S(N)(=O)=O)sc3n2)cc1Cl [Compound 122] |  |
| < 500 | NS(=O)(=O)c1nn2cc(-c3ccccn3)nc2s1 [Compound 123] |  |
| < 500 | NS(=O)(=O)c1nn2cc(-c3cnccn3)nc2s1 [Compound 126] |  |
| < 500 | NS(=O)(=O)c1nn2cc(-c3cc4ccccc4oc3=O)nc2s1 [Compound 127] |  |
| < 500 | NS(=O)(=O)c1nn2cc(-c3ccc4c(c3)NC(=O)CO4)nc2s1 [Compound 128] |  |
| < 500 | NS(=O)(=O)c1nn2cc(-c3cc4ccccc4o3)nc2s1 [Compound 129] |  |
| < 500 | NS(=O)(=O)c1nn2cc(-c3cccs3)nc2s1 [Compound 130] |  |
| < 500 | NS(=O)(=O)c1nn2cc(-c3ccc(-c4ccccc4)s3)nc2s1 [Compound 131] |  |
| < 500 | Br.NS(=O)(=O)c1nn2cc(-c3ccc([N+](=O)[O-])s3)nc2s1 [Compound 132] |  |
| < 500 | Cc1c(-c2cn3nc(S(N)(=O)=O)sc3n2)sc2ccccc12 [Compound 133] |  |
| < 500 | NS(=O)(=O)c1nn2cc(-c3cc(-c4ccccc4)no3)nc2s1 [Compound 135] |  |
| < 500 | Cc1onc(-c2ccccc2)c1-c1cn2nc(S(N)(=O)=O)sc2n1 [Compound 136] |  |
| < 500 | Cc1c(-c2cn3nc(S(N)(=O)=O)sc3n2)cnn1-c1ccccc1 [Compound 137] |  |
| < 500 | NS(=O)(=O)c1nn2cc(-c3nccs3)nc2s1 [Compound 138] |  |
| < 500 | Cc1nc(C)c(-c2cn3nc(S(N)(=O)=O)sc3n2)s1 [Compound 139] |  |
| < 500 | CNS(=O)(=O)c1nn2cc(-c3ccccc3)nc2s1 [Compound 140] |  |

| Structure (SMILES) | solubility (physchem) [µg/mL] | solubility in water or in 10% HPCD [1] |
| --- | --- | --- |
| CC1(C)CCC(C)(C)c2cc(-c3cn4nc(S(N)(=O)=O)sc4n3)ccc21 [Compound 88] | < 500 |  |
